The values below come from patent publication US20070292901A1, “Methods and kits for evaluating and measuring the oncological status of tissue samples in three-dimensional physiological matrices” (priority 2006, published 2007).

For this test, the system named is Patient Sample GS-640, kidney tissue, renal cell carcinoma. The test is described as follows: Three-dimensional gel matrix screening of chemotherapeutics on patient tumor tissue fragments (cell migration/invasion into the gel). It counts as cell-based, human. To be noted: renal cell carcinoma patient sample GS-640 in gel matrix; for distance of cell migration away from the solid tumor fragment / number of cells that have grown and invaded away from the solid tumor fragment: 5 days after treatment, photomicrograph; for number of cells that have grown and invaded away from the solid tumor fragment: versus control; for response of tumor sample to the drug: treated for 5 days, 37 degree Celsius, 5% CO2, compared with untreated control (FIG. 5). An excerpt: FIGS. 1-8 are photographic and photomicrographic images which show, by way of example, use of the means and methods of the present invention with respect to a tissue sample removed from a patient. With respect to FIGS. 1-8, Patient Sample GS-640, comprising kidney tissue, was removed from the patient by a surgeon during surgery.
Tissue analysis and screening in accordance with the invention were requested by the surgeon, and proper consent was obtained from the patient prior to surgical removal of a sample quantity of tissue from the RHS Kidney. The patient was diagnosed with renal cell carcinoma. A tissue sample of approximately 1 gram in quantity was removed from the patient during surgery, and was placed into a 25 ml sample jar, and immersed in sterile saline. The tumor tissue was kept at 4 degrees centigrade until processed for the screening of therapeutic compounds in accordance with the means and methods of the invention. All procedures were performed under sterile conditions in a bio-safety laminar flow hood.
FIG. 1: FIG. 1 is a photographic image showing the mechanical division of the sample into portions to be tested. The sample has been prepared by dissecting away any non viable tissue and blood prior to mincing into 1-2 mm pieces using sterile disposable scalpels.
FIG. 2: FIG. 2 is a photographic image showing tumor sample portions which have been placed into each well of a 48 well plate, and been submersed in a gel matrix mixture according to the invention. After insertion of the portions, the mixture was allowed to form into a gel at room temperature for approximately 30 minutes. Once the gel formed around the fully immersed tumor fragments, nutrient rich media was added as a liquid overlay that permeated the entire gel and tumor fragment.
Each different chemotherapy and or dose of chemotherapy was added to a set of 6 wells out of the 48-well plate. A total of 7 different chemotherapies were assessed in this plate. One set of six wells were not treated with drug and thus acted as ‘control conditions’ for tumor fragment growth and invasion. Each of the eight vertical lanes containing six separate wells was marked with a symbol for each chemotherapy/dose used and noted correspondingly on data collection sheets. […] The plates were then placed in a conventional 37 degree Celsius incubator at 5% CO2.
This image is thus representative of all wells at Day 0 with or without chemotherapeutics. Images were made with a 400× magnification phase contrast micrograph using ZEISS camera specs.
Noteworthy is the halo of cells and increased cell density as compared with the results shown at Day 3 of the test. The lines on the images have been drawn to show the distance measurements within which approximately 95% of the migrating cells have migrated away from the margins of the tissue sample.

As for `CC(=O)O[C@H]1C(=O)[C@@]2(C)[C@H]([C@H](OC(=O)c3ccccc3)[C@]3(O)C[C@H](OC(=O)[C@H](O)[C@@H](NC(=O)c4ccccc4)c4ccccc4)C(C)=C1C3(C)C)[C@]1(OC(C)=O)CO[C@@H]1C[C@@H]2O` [Taxol, Paclitaxel], the “distance of cell migration away from the solid tumor fragment” value was “drop”; the “number of cells that have grown and invaded away from the solid tumor fragment” value (“number” below) is given as “drop”.

As for `CC(=O)O[C@@]12CO[C@@H]1C[C@H](O)[C@@]1(C)C(=O)[C@H](O)C3=C(C)[C@@H](OC(=O)[C@H](O)[C@@H](NC(=O)OC(C)(C)C)c4ccccc4)C[C@@](O)([C@@H](OC(=O)c4ccccc4)[C@H]21)C3(C)C` [Docetaxol, Docetaxel], the “distance of cell migration away from the solid tumor fragment” value is “longer migratory distance than treatment with Taxol”; the “number” value was “fewer number of invading cells than the control”; the “response of tumor sample to the drug” value was “moderate response”.

For `N.N.[Cl][Pt][Cl]` [Cisplatin], the “number” value was “identical in appearance and cell numbers to the control sample”; the “response of tumor sample to the drug” value is listed as “failed chemotherapy”.
